# In patent publication US20250295661A1, “MENIN-MLL INHIBITORS FOR THE TREATMENT OF CANCER” (Syndax Pharmaceuticals, Inc., priority 2022, published 2025):
# Columns and labels:
# rats = assay: GLP 28-day rat toxicology study; format: in vivo
# dogs = assay: GLP 28-day dog toxicology study / QTc in dogs; format: in vivo
# >125 molecular targets = assay: Off-target screening assays
# [1] = Population PK model simulation of Compound A dosing regimens (one-compartment, first-order absorption, lag time); set-up: species or system human
# Protocol: The rationale for these doses is based on PK data from 53 patients treated in Arm A (no strong cytochrome P450 CYP3A4 inhibitor) and Arm B (with a strong CYP3A4 inhibitor) of Study Compound A which were analyzed with a preliminary population PK model. The model was a one-compartment PK model with first-order absorption (ka) and lag time (Tlag) that described the individual PK data. The data confirmed the expected effect of a strong CYP3A4 inhibitor comedication in Arm B on the drug elimination rate (k) and apparent volume of distribution (Vz/F).
# The starting dose of 163 mg TID of Compound A alone was selected because it provides Cmax, Cmin, as shown in FIGS. 2A-B, and AUC0-24 approximately half that of 163 mg q12 h with a strong CYP3A4 inhibitor, as shown in FIG. 2C; the lower exposure provides a margin of safety in case CRC patients are more sensitive to the effects of Compound A than acute myeloid leukemia patients. The dose of 276 mg TID is expected to show exposure similar to that for 163 mg q12 h with a strong CYP3A inhibitor based on 3 key PK parameters (Cmax, Cmin, and AUC0-24), as shown in FIGS. 2A-C and Table 3A.
compound,measurement,setting,value
CCN(C(=O)c1cc(F)ccc1Oc1cncnc1N1CC2(CCN(C[C@H]3CC[C@H](NS(=O)(=O)CC)CC3)CC2)C1)C(C)C [Compound A],Potential main targeted organs of toxicity (other),"rats; 28-day rat and dog toxicology studies, rat","liver, bone marrow, lymphoid tissues, male reproductive system, and female reproductive system"
same,Potential main targeted organ of toxicity: eyes,rats; 28-day rat toxicology study,cataracts in rats only
same,Potential main targeted organ of toxicity: heart,dogs; 28-day dog toxicology study,electrocardiogram [ECG] changes in dogs
same,Potential main targeted organs of toxicity (other),"dogs; 28-day rat and dog toxicology studies, dog","liver, bone marrow, lymphoid tissues, male reproductive system, and female reproductive system"
same,QTc finding in dogs,dogs; dogs treated with Compound A,Prolonged QTc
same,Cross-reactivity in off-target screening,>125 molecular targets,no cross-reactivity
same,"Cmax, Cmin and AUC0-24 relative to 163 mg q12 h with a strong CYP3A4 inhibitor",[1]; 163 mg TID of Compound A alone,approximately half
same,"Exposure (Cmax, Cmin, AUC0-24) compared with 163 mg q12 h with a strong CYP3A inhibitor",[1]; 276 mg TID without CYP3A4 inhibitor,similar
